IC50 and Ki data for 16 compounds are collected here from ChEMBL document CHEMBL1909046, “DrugMatrix in vitro pharmacology data”.

In one data set the target is Cytochrome P450 2C19 (Homo sapiens, UniProt P33261). The conditions noted are these: bti-tn-5b1-4. Further: in other assays of this panel Not Active means under 50% inhibition at 10 µM.
In data set [1] the target is T1, Muscarinic acetylcholine receptor M5 (Homo sapiens, UniProt P08912). Further: in other assays of this panel Not Active means under 50% inhibition at 10 µM.
T1 sequence (P08912 whole entry): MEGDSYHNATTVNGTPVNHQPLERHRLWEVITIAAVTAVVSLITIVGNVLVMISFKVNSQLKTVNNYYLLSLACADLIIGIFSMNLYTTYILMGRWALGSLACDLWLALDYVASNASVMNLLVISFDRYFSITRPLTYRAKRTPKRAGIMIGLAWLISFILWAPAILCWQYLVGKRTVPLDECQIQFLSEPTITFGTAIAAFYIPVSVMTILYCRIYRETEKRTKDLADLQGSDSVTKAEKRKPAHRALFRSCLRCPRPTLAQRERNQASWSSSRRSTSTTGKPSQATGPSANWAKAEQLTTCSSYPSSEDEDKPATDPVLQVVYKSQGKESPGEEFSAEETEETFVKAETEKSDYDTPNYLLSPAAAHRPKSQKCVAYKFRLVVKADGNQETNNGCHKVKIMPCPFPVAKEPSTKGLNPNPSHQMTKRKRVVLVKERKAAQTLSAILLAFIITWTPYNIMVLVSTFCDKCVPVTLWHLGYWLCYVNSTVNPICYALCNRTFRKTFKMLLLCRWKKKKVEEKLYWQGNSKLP
Type of data set: cell membranes, Membrane. As to conditions: cho-k1.

The nature of data set [2]: DRUGMATRIX: Sodium/nucleoside co-transporter radioligand binding (ligand: nitrobenzylthioinosine). In kind it is cell membranes, Cavia porcellus, Dunkin-Hartley, Cerebral cortex, Membrane. As to conditions: Not Active = under 50% inhibition at 10 µM.
A short description of data set [3]: DRUGMATRIX: Platelet-Derived Growth Factor (PDGF) radioligand binding (ligand: [125I] PDGF). The conditions noted are these: nih3t3; Not Active = under 50% inhibition at 10 µM. In kind it is cell-based.
Data set [4] concerns the target 5-hydroxytryptamine receptor 1B (Rattus norvegicus, UniProt P28564). In kind it is cell membranes, Wistar, Cerebral cortex, Membrane. Further: in other assays of this panel Not Active means under 50% inhibition at 10 µM.
Another data set deals with T2, Interstitial collagenase (Homo sapiens, UniProt P03956).
T2 sequence (P03956 whole entry): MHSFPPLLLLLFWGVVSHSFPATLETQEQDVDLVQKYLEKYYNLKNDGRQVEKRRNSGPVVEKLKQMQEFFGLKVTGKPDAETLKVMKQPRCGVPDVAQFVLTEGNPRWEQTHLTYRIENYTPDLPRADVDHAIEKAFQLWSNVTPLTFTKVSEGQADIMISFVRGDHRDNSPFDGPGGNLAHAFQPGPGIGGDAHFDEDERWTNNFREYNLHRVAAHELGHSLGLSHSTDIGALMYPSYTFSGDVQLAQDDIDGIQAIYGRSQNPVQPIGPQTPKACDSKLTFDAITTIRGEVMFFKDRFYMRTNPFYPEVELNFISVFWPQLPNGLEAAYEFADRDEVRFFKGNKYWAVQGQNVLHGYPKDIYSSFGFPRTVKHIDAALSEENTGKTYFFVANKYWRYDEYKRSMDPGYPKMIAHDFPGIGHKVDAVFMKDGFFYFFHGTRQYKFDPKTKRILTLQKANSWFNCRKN
In kind it is tissue-based, Rheumatoid synovial fibroblasts.

Data set [5] addresses 5-hydroxytryptamine receptor 2B (Homo sapiens, UniProt P41595). Type of data set: cell membranes, CHO-K1, Membrane.

Sequence of Cytochrome P450 2C19 (P33261 whole entry): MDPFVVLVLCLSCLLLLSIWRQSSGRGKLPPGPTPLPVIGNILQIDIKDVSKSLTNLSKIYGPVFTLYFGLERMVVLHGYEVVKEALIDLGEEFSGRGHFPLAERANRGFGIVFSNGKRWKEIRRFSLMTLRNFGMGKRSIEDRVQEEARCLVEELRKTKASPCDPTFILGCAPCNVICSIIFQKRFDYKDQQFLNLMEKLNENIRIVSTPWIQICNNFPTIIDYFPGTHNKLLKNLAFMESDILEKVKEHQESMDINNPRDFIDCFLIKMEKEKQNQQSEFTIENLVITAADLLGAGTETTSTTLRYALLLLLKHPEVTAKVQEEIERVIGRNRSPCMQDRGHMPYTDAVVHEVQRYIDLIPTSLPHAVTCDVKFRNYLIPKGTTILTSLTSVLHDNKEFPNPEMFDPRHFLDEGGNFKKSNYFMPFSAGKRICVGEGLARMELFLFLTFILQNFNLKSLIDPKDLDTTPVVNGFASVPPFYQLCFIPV
Sequence of 5-hydroxytryptamine receptor 2B (P41595 whole entry): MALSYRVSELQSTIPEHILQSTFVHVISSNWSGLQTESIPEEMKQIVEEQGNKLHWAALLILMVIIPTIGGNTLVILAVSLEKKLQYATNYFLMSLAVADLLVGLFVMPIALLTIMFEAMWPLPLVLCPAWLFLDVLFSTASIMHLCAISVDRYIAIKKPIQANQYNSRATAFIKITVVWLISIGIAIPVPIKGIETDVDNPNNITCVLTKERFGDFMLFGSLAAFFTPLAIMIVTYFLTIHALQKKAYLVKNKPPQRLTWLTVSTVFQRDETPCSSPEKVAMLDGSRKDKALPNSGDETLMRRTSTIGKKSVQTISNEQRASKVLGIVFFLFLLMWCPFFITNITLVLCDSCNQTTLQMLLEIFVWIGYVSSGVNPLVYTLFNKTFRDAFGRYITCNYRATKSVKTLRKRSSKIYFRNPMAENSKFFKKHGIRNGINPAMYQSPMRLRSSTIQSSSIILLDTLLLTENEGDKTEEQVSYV
Sequence of 5-hydroxytryptamine receptor 1B (P28564 whole entry): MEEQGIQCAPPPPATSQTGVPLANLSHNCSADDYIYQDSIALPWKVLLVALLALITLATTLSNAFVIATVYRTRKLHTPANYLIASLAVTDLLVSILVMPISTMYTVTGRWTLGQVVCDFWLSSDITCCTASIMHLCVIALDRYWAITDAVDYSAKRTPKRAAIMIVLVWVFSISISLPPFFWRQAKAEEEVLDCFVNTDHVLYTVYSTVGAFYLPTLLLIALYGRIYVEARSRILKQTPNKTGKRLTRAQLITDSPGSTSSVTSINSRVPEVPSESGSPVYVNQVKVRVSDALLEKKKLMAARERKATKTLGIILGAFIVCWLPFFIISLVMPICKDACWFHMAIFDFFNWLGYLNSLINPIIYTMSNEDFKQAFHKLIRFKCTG

For orientation: IC50 means the concentration at which inhibition is half-maximal. Broadly, the Ki is the dissociation constant of the complex between target and ligand, obtained from inhibition or displacement. For the compound `C[C@@H](O)[C@H]1C(=O)N2C(C(=O)O)=C(S[C@@H]3CN[C@H](C(=O)N(C)C)C3)[C@H](C)[C@H]12` [MEROPENEM], the IC50 result (on Cytochrome P450 2C19; in data set [1]; in data set [2]; in data set [3]; in data set [4]; on Interstitial collagenase) was “Not Active” in each case. Further, the IC50 entry in data set [5] (cho-k1) is given as “Not Active”. The Ki entry (on Cytochrome P450 2C19; in data set [2]; in data set [3]) was “Not Active” throughout.

As to `O=P(O)(O)C(O)(Cc1cccnc1)P(=O)(O)O` [RISEDRONIC ACID], the IC50 result (against Cytochrome P450 2C19; in data set [1]; in data set [2]; in data set [3]; in data set [4]; against Interstitial collagenase) was “Not Active” each time. Moreover, the IC50 entry in data set [5] (cho-k1) is listed as “Not Active”. The Ki result (on Cytochrome P450 2C19; in data set [2]; in data set [3]) was “Not Active” in each case.

As to `CN(CCOc1ccc(CC2SC(=O)NC2=O)cc1)c1ccccn1` (centres undefined) [ROSIGLITAZONE], the IC50 result (at Cytochrome P450 2C19; in data set [1]; in data set [2]; in data set [3]; in data set [4]; against Interstitial collagenase) was “Not Active” each time. For the same compound, in data set [5] (cho-k1), the half-maximal inhibitory concentration (IC50) entry was “Not Active”. Also, the Ki entry (on Cytochrome P450 2C19; in data set [2]; in data set [3]) was “Not Active” throughout.

`Nc1ccc(S(=O)(=O)Nc2ncccn2)cc1` [SULFADIAZINE]: the IC50 entry (at Cytochrome P450 2C19; in data set [1]; in data set [2]; in data set [3]; in data set [4]; at Interstitial collagenase) was “Not Active” in each case. Also, the IC50 entry in data set [5] (cho-k1) was “Not Active”. The Ki result (on Cytochrome P450 2C19; in data set [2]; in data set [3]) was “Not Active” throughout.

`COc1ncnc(NS(=O)(=O)c2ccc(N)cc2)c1OC` [SULFADOXINE]: the IC50 entry (against Cytochrome P450 2C19; in data set [1]; in data set [2]; in data set [3]; in data set [4]; against Interstitial collagenase) was “Not Active” throughout. Moreover, in data set [5] (cho-k1), the IC50 result was “Not Active”. Further, the Ki result (at Cytochrome P450 2C19; in data set [2]; in data set [3]) was “Not Active” each time.

For `Nc1ccc(S(=O)(=O)Nc2nccs2)cc1` [SULFATHIAZOLE], the IC50 result (against Cytochrome P450 2C19; in data set [1]; in data set [2]; in data set [3]; in data set [4]; against Interstitial collagenase) was “Not Active” throughout. In addition, the IC50 result in data set [5] (cho-k1) is “Not Active”. Further, the Ki entry (on Cytochrome P450 2C19; in data set [2]; in data set [3]) was “Not Active” throughout.

As to `C[C@]12CC[C@H]3[C@@H](CCC4=CC(=O)CC[C@@]43C)[C@@H]1CC[C@@H]2O` [TESTOSTERONE], the IC50 result (on Cytochrome P450 2C19; in data set [1]; in data set [2]; in data set [3]; in data set [4]; against Interstitial collagenase) was “Not Active” in each case. Besides, the IC50 entry in data set [5] (cho-k1) is listed as “Not Active”. Further, the inhibitory constant (Ki) result (at Cytochrome P450 2C19; in data set [2]; in data set [3]) was “Not Active” in each case.

For the compound `CC(C)(C)NC[C@H](O)COc1nsnc1N1CCOCC1` [TIMOLOL], the IC50 entry (on Cytochrome P450 2C19; in data set [1]; in data set [2]; in data set [3]; in data set [4]; against Interstitial collagenase) was “Not Active” in each case. The IC50 result in data set [5] (cho-k1) is recorded as “Not Active”. In addition, the Ki entry (at Cytochrome P450 2C19; in data set [2]; in data set [3]) was “Not Active” in each case.

In the case of `C[C@@H]1C[C@H]2[C@@H]3CCC4=CC(=O)C=C[C@]4(C)C3=CC[C@]2(C)[C@H]1C(=O)CN1CCN(c2cc(N3CCCC3)nc(N3CCCC3)n2)CC1` [TIRILAZAD], the IC50 result (against Cytochrome P450 2C19; in data set [1]; in data set [2]; in data set [3]; in data set [4]; at Interstitial collagenase) was “Not Active” throughout. Further, in data set [5] (read-out: IC50), the IC50 stood at 18.5 µM. The Ki entry at Cytochrome P450 2C19 is “Not Active”; in data set [2], “Not Active”; in data set [3] it was “Not Active”; in data set [5] (read-out: Ki), 11.8 µM.

Regarding `NC[C@H]1O[C@H](O[C@H]2[C@H](O)[C@@H](O[C@H]3O[C@H](CO)[C@@H](O)[C@H](N)[C@H]3O)[C@H](N)C[C@@H]2N)[C@H](N)C[C@@H]1O` [TOBRAMYCIN], the IC50 entry (against Cytochrome P450 2C19; in data set [1]; in data set [2]; in data set [3]; in data set [4]; against Interstitial collagenase) was “Not Active” each time. For the same compound, the IC50 entry in data set [5] (cho-k1) is “Not Active”. For the same compound, the Ki result (on Cytochrome P450 2C19; in data set [2]; in data set [3]) was “Not Active” in each case.

As for `O=C(O)C(Cl)(Cl)Cl` [TRICHLOROACETIC ACID], the IC50 result (against Cytochrome P450 2C19; in data set [1]; in data set [2]; in data set [3]; in data set [4]; on Interstitial collagenase) was “Not Active” each time. Besides, in data set [5] (cho-k1), the IC50 result is given as “Not Active”. The Ki result (on Cytochrome P450 2C19; in data set [2]; in data set [3]) was “Not Active” in each case.

For the compound `CC(=O)O[C@H]1C[C@@H]2CC[C@@H]3[C@H](CC[C@@]4(C)[C@H]3C[C@H]([N+]3(C)CCCCC3)[C@@H]4OC(C)=O)[C@@]2(C)C[C@@H]1N1CCCCC1.[Br-]` [VECURONIUM BROMIDE], the IC50 entry (against Cytochrome P450 2C19; in data set [1]; in data set [2]; in data set [3]; in data set [4]; at Interstitial collagenase) was “Not Active” in each case. For the same compound, the IC50 entry in data set [5] (cho-k1) is recorded as “Not Active”. Moreover, the Ki result (on Cytochrome P450 2C19; in data set [2]; in data set [3]) was “Not Active” in each case.

As for `COc1cc(C(=O)NS(=O)(=O)c2ccccc2C)ccc1Cc1cn(C)c2ccc(NC(=O)OC3CCCC3)cc12` [ZAFIRLUKAST], the IC50 entry (against Cytochrome P450 2C19; in data set [1]; in data set [2]; in data set [3]; in data set [4]; against Interstitial collagenase) was “Not Active” in each case. In addition, the IC50 result in data set [5] (cho-k1) was “Not Active”. The Ki result (at Cytochrome P450 2C19; in data set [2]; in data set [3]) was “Not Active” in each case.

As to `Cc1cn([C@H]2C[C@H](N=[N+]=[N-])[C@@H](CO)O2)c(=O)[nH]c1=O` [ZIDOVUDINE], the IC50 result (at Cytochrome P450 2C19; in data set [1]; in data set [2]; in data set [3]; in data set [4]; at Interstitial collagenase) was “Not Active” in each case. Also, in data set [5] (cho-k1), the IC50 result was “Not Active”. Also, the Ki result (at Cytochrome P450 2C19; in data set [2]; in data set [3]) was “Not Active” in each case.

Take STANNOUS FLUORIDE: the concentration for half-maximal inhibition (IC50) result (on Cytochrome P450 2C19; in data set [1]; in data set [2]; in data set [3]; in data set [4]; against Interstitial collagenase) was “Not Active” in each case. The IC50 entry in data set [5] (cho-k1) is recorded as “Not Active”. The Ki entry (on Cytochrome P450 2C19; in data set [1]; in data set [2]; in data set [3]; in data set [4]; at Interstitial collagenase) was “Not Active” in each case. Further, the Ki entry in data set [5] (cho-k1) was “Not Active”.

As to THIMEROSAL, the IC50 result (on Cytochrome P450 2C19; in data set [1]; in data set [2]; in data set [3]; in data set [4]; against Interstitial collagenase) was “Not Active” in each case. In addition, the IC50 entry in data set [5] (cho-k1) is given as “Not Active”. In addition, the Ki entry (on Cytochrome P450 2C19; in data set [1]; in data set [2]; in data set [3]; in data set [4]; at Interstitial collagenase) was “Not Active” throughout. Further, in data set [5] (cho-k1), the Ki entry is given as “Not Active”.
